Measured values from US20200291018A1, “TAM KINASE INHIBITORS” (SYROS PHARMACEUTICALS, INC., priority 2017, published 2020).

Assays:
MERTK = biological target: T1, MERTK (Homo sapiens, UniProt Q12866); assay: TR-FRET kinase activity assay, MERTK; format: biochemical; settings: for IC50: TR-FRET activity assay, ATP at Km, 60 minutes, read-out: Mer IC50; for Mer/Flt3 ratio (FLT3 IC50/Mer IC50): ratio calculated as FLT3 IC50/Mer IC50
T1 sequence (Q12866 21-999): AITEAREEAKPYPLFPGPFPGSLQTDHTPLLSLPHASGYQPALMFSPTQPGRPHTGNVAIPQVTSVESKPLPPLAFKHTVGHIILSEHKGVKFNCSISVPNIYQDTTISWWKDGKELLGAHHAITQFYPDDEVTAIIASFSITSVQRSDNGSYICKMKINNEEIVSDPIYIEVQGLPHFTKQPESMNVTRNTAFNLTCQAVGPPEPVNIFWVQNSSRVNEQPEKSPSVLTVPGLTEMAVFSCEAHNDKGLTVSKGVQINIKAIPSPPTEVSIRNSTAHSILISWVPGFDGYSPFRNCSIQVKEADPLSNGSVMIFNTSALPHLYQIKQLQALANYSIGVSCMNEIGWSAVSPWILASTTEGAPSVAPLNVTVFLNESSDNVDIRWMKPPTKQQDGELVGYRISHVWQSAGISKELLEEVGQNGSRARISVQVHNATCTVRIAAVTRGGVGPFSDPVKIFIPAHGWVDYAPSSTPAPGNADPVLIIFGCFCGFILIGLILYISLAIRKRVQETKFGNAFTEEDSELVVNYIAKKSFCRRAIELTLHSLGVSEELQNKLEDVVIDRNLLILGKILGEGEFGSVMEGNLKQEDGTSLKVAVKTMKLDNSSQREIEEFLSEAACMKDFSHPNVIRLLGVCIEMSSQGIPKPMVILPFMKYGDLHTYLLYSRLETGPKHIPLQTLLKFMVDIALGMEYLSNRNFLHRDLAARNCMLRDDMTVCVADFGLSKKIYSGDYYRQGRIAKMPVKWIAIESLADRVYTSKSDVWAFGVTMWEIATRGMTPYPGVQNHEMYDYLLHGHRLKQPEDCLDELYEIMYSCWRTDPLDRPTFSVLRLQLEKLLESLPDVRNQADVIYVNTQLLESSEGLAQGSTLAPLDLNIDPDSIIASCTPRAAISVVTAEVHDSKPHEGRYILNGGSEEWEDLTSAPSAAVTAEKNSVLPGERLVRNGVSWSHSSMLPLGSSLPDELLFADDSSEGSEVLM
Method in brief: (§1)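 Each kinase phosphorylates a fluorescently labeled peptide on tyrosine in the presence of compound, with ATP at its Km, for 60 min at RT in HEPES pH 7.5 buffer with MgCl2, EGTA, Brij 35 and DTT. Product is detected by TR-FRET with a Europium-labeled phospho-specific antibody; IC50 values follow.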

AXL = biological target: T2, AXL (Homo sapiens, UniProt P30530); assay: TR-FRET kinase activity assay, AXL; format: biochemical; settings: ATP at Km, 60 minutes
T2 sequence (P30530 26-894): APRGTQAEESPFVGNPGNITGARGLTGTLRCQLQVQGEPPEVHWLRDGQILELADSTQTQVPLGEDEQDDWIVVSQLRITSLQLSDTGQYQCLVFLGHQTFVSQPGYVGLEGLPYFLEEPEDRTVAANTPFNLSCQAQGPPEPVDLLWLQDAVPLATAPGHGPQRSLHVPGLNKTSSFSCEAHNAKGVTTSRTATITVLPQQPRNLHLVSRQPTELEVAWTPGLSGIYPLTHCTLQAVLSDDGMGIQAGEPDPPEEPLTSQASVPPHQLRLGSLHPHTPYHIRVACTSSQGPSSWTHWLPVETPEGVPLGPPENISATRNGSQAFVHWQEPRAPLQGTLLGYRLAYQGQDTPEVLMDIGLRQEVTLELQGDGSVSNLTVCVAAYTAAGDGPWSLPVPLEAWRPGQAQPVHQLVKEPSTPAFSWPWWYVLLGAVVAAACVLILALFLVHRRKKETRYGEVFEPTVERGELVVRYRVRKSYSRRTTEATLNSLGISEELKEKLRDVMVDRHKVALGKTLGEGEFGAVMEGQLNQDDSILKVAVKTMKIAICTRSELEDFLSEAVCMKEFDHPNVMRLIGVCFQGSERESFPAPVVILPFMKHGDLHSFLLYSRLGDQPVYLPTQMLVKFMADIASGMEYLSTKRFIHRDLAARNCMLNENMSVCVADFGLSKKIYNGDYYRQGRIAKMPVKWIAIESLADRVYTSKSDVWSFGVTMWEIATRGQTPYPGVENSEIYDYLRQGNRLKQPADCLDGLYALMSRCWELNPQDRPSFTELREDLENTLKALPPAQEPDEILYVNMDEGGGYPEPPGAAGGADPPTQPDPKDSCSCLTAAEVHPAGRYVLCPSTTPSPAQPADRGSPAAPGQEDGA
Method in brief: as §1

SMILES | IC50 (MERTK) [nM] | Mer/Flt3 ratio (FLT3 IC50/Mer IC50) (MERTK) | IC50 (AXL) [nM]
C[C@@H](CC(F)(F)F)Nc1ncc2c(O[C@@H]3C[C@H]4CC[C@@H](C3)N4[C@@H]3CCOC3)ncc([C@H]3CC[C@H](O)CC3)c2n1 [Compound 415] | ≤ 100 | +++ (a ratio of >100) | ≤ 100
O[C@H]1CC[C@H](c2cnc(OC3CCOCC3)c3cnc(Nc4ccc(-c5nn[nH]n5)cc4)nc32)CC1 [Compound 392] | ≤ 100 | +++ (a ratio of >100) | ≤ 100
C[C@@H](CC(F)(F)F)Nc1ncc2c(O[C@@H]3C[C@H]4CC[C@@H](C3)N4C[C@@H]3CCOC3)ncc([C@H]3CC[C@H](O)CC3)c2n1 [Compound 416] | ≤ 100 | +++ (a ratio of >100) | ≤ 100
C[C@@H](CC(F)(F)F)Nc1ncc2c(O[C@H]3C[C@H](N4CCOCC4)C3)ncc([C@H]3CC[C@H](O)CC3)c2n1 [Compound 422] | ≤ 100 | +++ (a ratio of >100) | ≤ 100
COC[C@H](C)Nc1ncc2c(OC3CC(C)(C)N(C(C)=O)C(C)(C)C3)ncc([C@H]3CC[C@H](O)CC3)c2n1 [Compound 361] | ≤ 100 | +++ (a ratio of >100) | 1000 to 10000
C[C@@H](CC(F)(F)F)Nc1ncc2c(OC3CCN(S(C)(=O)=O)CC3)ncc([C@H]3CC[C@H](O)CC3)c2n1 [Compound 389] | ≤ 100 | +++ (a ratio of >100) | 100 to 1000
COCCN1C(C)(C)CC(Oc2ncc([C@H]3CC[C@H](O)CC3)c3nc(N[C@@H](C)CCO)ncc23)CC1(C)C [Compound 380] | ≤ 100 | +++ (a ratio of >100) | 100 to 1000
COCCN1CCC(Oc2ncc([C@H]3CC[C@H](O)CC3)c3nc(N[C@@H](C)CC(F)(F)F)ncc23)CC1 [Compound 369] | ≤ 100 | +++ (a ratio of >100) | 100 to 1000
C[C@H](Nc1ncc2c(O[C@H]3C[C@@H](O)C3)ncc([C@H]3CC[C@H](O)CC3)c2n1)C(F)F [Compound 411] | ≤ 100 | +++ (a ratio of >100) | 100 to 1000
CCCCNc1ncc2c(NC3CCOCC3)ncc([C@H]3CC[C@H](O)CC3)c2n1 [Compound 124] | ≤ 100 | + (a ratio of >2.0 and <10) | ≤ 100
O=C(O)[C@H]1CC[C@H](Nc2ncc3c(OC4CCOCC4)ncc([C@H]4CC[C@H](O)CC4)c3n2)CC1 [Compound 410] | ≤ 100 | +++ (a ratio of >100) | 1000 to 10000
COC[C@H](C)Nc1ncc2c(O[C@H]3CCN(C)C3)ncc([C@H]3CC[C@H](O)CC3)c2n1 [Compound 368] | ≤ 100 | +++ (a ratio of >100) | 1000 to 10000
COCCN1C(C)(C)CC(Oc2ncc([C@H]3CC[C@H](O)CC3)c3nc(NC4(C)CC4)ncc23)CC1(C)C [Compound 379] | ≤ 100 | +++ (a ratio of >100) | ≤ 100
COC[C@H](C)Nc1ncc2c(O[C@H]3CCN(C)C(C)(C)C3)ncc([C@H]3CC[C@H](O)CC3)c2n1 [Compound 384] | ≤ 100 | +++ (a ratio of >100) | 100 to 1000
COC[C@H](C)Nc1ncc2c(OC3C[C@@H](C)N(C)[C@H](C)C3)ncc([C@H]3CC[C@H](O)CC3)c2n1 (stereo partly drawn) [Compound 388] | ≤ 100 | +++ (a ratio of >100) | 100 to 1000
CCC[C@H](C)Nc1ncc2c(=O)n(C3CCNCC3)cc([C@H]3CC[C@H](O)CC3)c2n1 [Compound 126] | ≤ 100 | +++ (a ratio of >100) | 100 to 1000
C[C@@H](CC(F)(F)F)Nc1ncc2c(O[C@H]3C[C@@H](O)C3)ncc(-c3ccc(C4(C#N)CC4)cc3)c2n1 [Compound 409] | ≤ 100 | ++ (a ratio of between 10 and 100) | 1000 to 10000

Other lines, results leading:

IC50 (MERTK) [nM] | Mer/Flt3 ratio (FLT3 IC50/Mer IC50) (MERTK) | IC50 (AXL) [nM] | SMILES
≤ 100 | +++ (a ratio of >100) | 100 to 1000 | COC[C@H](C)Nc1ncc2c(O[C@@H]3CCN(C)C(C)(C)C3)ncc([C@H]3CC[C@H](O)CC3)c2n1 [Compound 385]
≤ 100 | +++ (a ratio of >100) | 100 to 1000 | Cc1ncc([C@H]2CC[C@H](O)CC2)c2nc(N[C@@H](C)CC(F)(F)F)ncc12 [Compound 356]
≤ 100 | +++ (a ratio of >100) | 100 to 1000 | C[C@@H](CC(F)(F)F)Nc1ncc2c(O[C@H]3C[C@@H](O)C3)ncc([C@H]3CC[C@H](O)CC3)c2n1 [Compound 360]
≤ 100 | +++ (a ratio of >100) | 100 to 1000 | COC[C@H](C)Nc1ncc2c(OC3C[C@@H](C)N(C)[C@@H](C)C3)ncc([C@H]3CC[C@H](O)CC3)c2n1 (stereo partly drawn) [Compound 371]
≤ 100 | +++ (a ratio of >100) | ≤ 100 | CCN1C(C)(C)CC(Oc2ncc([C@H]3CC[C@H](O)CC3)c3nc(N[C@@H](C)CC(F)(F)F)ncc23)CC1(C)C [Compound 391]
≤ 100 | + (a ratio of >2.0 and <10) | 100 to 1000 | CNC(=O)c1ccc(Nc2ncc3c(OC4CCOCC4)ncc([C@H]4CC[C@H](O)CC4)c3n2)cc1 [Compound 398]
≤ 100 | ++ (a ratio of between 10 and 100) | 100 to 1000 | COCCN1C(C)(C)CC(Oc2ncc([C@H]3CC[C@H](O)CC3)c3nc(N[C@@H]4CCOC4)ncc23)CC1(C)C [Compound 390]
≤ 100 | +++ (a ratio of >100) | ≤ 100 | CC[C@@H](C)Nc1ncc2c(OC3CC(C)(C)N(C)C(C)(C)C3)ncc([C@H]3CC[C@H](O)CC3)c2n1 [Compound 367]
≤ 100 | +++ (a ratio of >100) | 100 to 1000 | C[C@@H](CF)Nc1ncc2c(OC3CC(C)(C)N(C)C(C)(C)C3)ncc([C@H]3CC[C@H](O)CC3)c2n1 [Compound 382]
≤ 100 | +++ (a ratio of >100) | 1000 to 10000 | COC[C@H](C)Nc1ncc2c(Nc3ccncc3)ncc([C@H]3CC[C@H](O)CC3)c2n1 [Compound 362]
≤ 100 | +++ (a ratio of >100) | 1000 to 10000 | COC[C@H](C)Nc1ncc2c(O[C@H]3CCOC3)ncc([C@H]3CC[C@H](O)CC3)c2n1 [Compound 357]
≤ 100 | +++ (a ratio of >100) | 100 to 1000 | C[C@@H](CC(F)(F)F)Nc1ncc2c(O[C@H]3C[C@H](O)C3)ncc([C@H]3CC[C@H](O)CC3)c2n1 [Compound 364]
